These are literature values, as cited in patent publication US6686317B2, “Supported fluridone compositions and methods” (SePro Corporation, priority 2001, dated 2004).

This series has as its system aquatic plants.

Like-named read-outs stand apart in the source and are kept apart here.

Consider “1-methyl-3-phenyl-5-3-(trifluoromethyl)phenyl-4(1H)-pyridinone [fluridone]”, for which the “concentration to which plant species are usually susceptible” value is, setting by setting: (other species susceptible only to higher concentrations) 150 ppb; (some (more susceptible) species, as low as) “about 5 ppb”.
